Values quoted from earlier work in US20240050531A1, “A METHOD FOR REVERSING AGING BRAIN FUNCTIONAL DECLINE” (THE CHINESE UNIVERSITY OF HONG KONG, priority 2020, published 2024).
Where two headings read alike, the source gives them in different places.

How the values were obtained:
GLP-1R = biological target: T1, GLP-1R (Rattus norvegicus, UniProt P32301)
T1 construct: host or cells: living rats (8 weeks old), endogenous receptor
T1 sequence (P32301 22-463): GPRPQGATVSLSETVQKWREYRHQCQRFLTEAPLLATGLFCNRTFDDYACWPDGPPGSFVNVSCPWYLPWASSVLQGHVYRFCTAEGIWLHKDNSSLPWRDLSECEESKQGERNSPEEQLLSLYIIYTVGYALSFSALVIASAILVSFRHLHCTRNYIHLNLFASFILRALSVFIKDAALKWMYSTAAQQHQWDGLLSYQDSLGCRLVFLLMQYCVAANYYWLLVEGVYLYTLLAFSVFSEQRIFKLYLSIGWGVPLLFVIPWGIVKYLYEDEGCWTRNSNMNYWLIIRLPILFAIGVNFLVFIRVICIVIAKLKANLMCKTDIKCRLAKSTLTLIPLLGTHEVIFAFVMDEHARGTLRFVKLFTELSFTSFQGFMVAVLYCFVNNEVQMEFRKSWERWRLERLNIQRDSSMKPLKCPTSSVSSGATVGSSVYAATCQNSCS

[1] = intraperitoneal (i.p.) injection

Row | Substance | associative and spatial learning (GLP-1R; intracerebroventricular (i.c.v) administration, 8 weeks old rats) | associative and spatial learning (GLP-1R; peripheral administration) | hippocampus-associated reference memory performance [1] | immobility in the forced swim test [1]
1 | [Ser(2)]exendin(1-9) | enhance associative and spatial learning | also active | – | –
2 | exendin-4 | – | – | improves | decreases immobility
